Consider 18 compounds from patent publication US20240124442A1, “TRICYCLIC-AMIDO-BICYCLIC PRMT5 INHIBITORS” (AMGEN INC., priority 2021, published 2024).

Experiment [1] concerns HCT116 WT cells. Put plainly: HCT116 WT (parent) cell line proliferation / cell viability (CellTiter-Glo, 6 days). Particulars: Homo sapiens, HCT-116, 144 h, 6 days treatment. It counts as cell-based. In outline:
(§1)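 Viability read by CellTiter-Glo luminescence after 6 days of compound treatment of HCT116 WT and MTAP-null cells (RPMI 1640, 10% FBS). Dose series were 1:3 steps from 1 or 10 μM (8–9 points), or 1:2 steps from 10 or 50 μM (22 points). IC50 from 4-parameter logistic or fixed-slope sigmoidal fit.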
(In general: Cellular ATP, detected with luciferase, serves as a proxy for viable cell number.)

In experiment [2] the test system is HCT116 MTAP null cells. Put plainly: HCT116 MTAP null cell line proliferation / cell viability (CellTiter-Glo, 6 days). The conditions noted are these: 144 h; HCT116 MTAP null cells, 6 days treatment, CellTiter-Glo cell viability; read-out: HCT-116 MTAP null IC50. Format: cell-based. Put shortly: as §1

SMILES strings stand for the structures.

In the case of `CN(C(=O)c1cc(F)c2nc(N)c3cnn(C)c3c2c1)[C@@H]1COc2cc(C(F)(F)F)ccc21` [Example 254, 4-amino-6-fluoro-N,1-dimethyl-N-((3S)-6-(trifluoromethyl)-2,3-dihydro-1-benzofuran-3-yl)-1H-pyrazolo[4,3-c]quinoline-8-carboxamide], the results for the IC50 in experiment [1] and in experiment [2] were 20200 nM and 308 nM, respectively.

Take `CN(C(=O)c1ccc2nc(N)c3c(cnn3C)c2c1)[C@@H]1COc2cc(S(F)(F)(F)(F)F)ccc21` [Example 255, 4-amino-N,3-dimethyl-N-((3S)-6-(pentafluoro-lambda~6~- sulfanyl)-2,3-dihydro-1-benzo-furan-3-yl)-3H-pyrazolo[3,4-c]quinoline-8-carboxamide]: the IC50 (in general, the point on the concentration scale where inhibition reaches its midpoint) was determined as 2400 nM in experiment [1] and 47 nM in experiment [2].

Regarding `CN(C(=O)c1cc2c(cn1)nc(N)c1c2cnn1C)[C@@H]1COc2cc(C(F)(F)F)ccc21` [Example 256, 4-amino-N,3-dimethyl-N-((3S)-6-(trifluoromethyl)-2,3-dihydro-1-benzofuran-3-yl)-3H-pyrazolo[3,4-c][1,7]naphthyr-idine-8-carboxamide], the figures for the IC50 in experiment [1] and in experiment [2] were 7500 nM and 143 nM, respectively.

Turning to `CN(C(=O)c1cc2c(cn1)nc(N)c1c2cnn1C)[C@@H]1COc2cc(S(F)(F)(F)(F)F)ccc21` [Example 257, 4-amino-N,3-dimethyl-N-((3S)-6-(pentafluoro-lambda~6~-sulfanyl)-2,3-dihydro-1-benzofuran-3-yl)-3H-pyrazolo[3,4-c][1,7]naph-thyridine-8-carboxamide], the IC50 came to 2020 nM in experiment [1] and 59 nM in experiment [2].

As to `CN(C(=O)c1cc2c(cc1F)nc(N)c1c2cnn1C)[C@@H]1COc2cc(C(F)(F)F)ccc21` [Example 258, 4-amino-7-fluoro-N,3-dimethyl-N-((3S)-6-(trifluoromethyl)-2,3-dihydro-1-benzofuran-3-yl)-3H-pyrazolo[3,4-c]quinoline-8-carboxamide], the IC50 in experiment [1] was 4030 nM; in experiment [2] it was 54 nM.

Take `CN(C(=O)c1cc2c(cc1F)nc(N)c1c2cnn1C)[C@@H]1COc2cc(OC(F)(F)F)ccc21` [Example 259, 4-amino-7-fluoro-N,3-dimethyl-N-((3S)-6-(trifluoromethoxy)-2,3-dihydro-1-benzofuran-3-yl)-3H-pyrazolo[3,4-c]quinoline-8-carboxamide]: the IC50 is 3240 nM in experiment [1] and 62 nM in experiment [2].

Take `CN(C(=O)c1cc2c(cc1F)nc(N)c1c2cnn1C)[C@@H]1COc2cc(-c3cnn(C(F)(F)F)c3)ccc21` [Example 260, 4-amino-7-fluoro-N,3-dimethyl-N-((3S)-6-(1-(trifluoromethyl)-1H-pyrazol-4-yl)-2,3-dihydro-1-benzofuran-3-yl)-3H-pyrazolo-[3,4-c]quinoline-8-carboxamide]: the IC50 in experiment [1] is 10500 nM; in experiment [2] it was 82 nM.

Regarding `CN(C(=O)c1ccc2nc(N)c3cn[nH]c3c2c1)[C@@H]1COc2cc(C(F)(F)F)ccc21` [Example 261, 4-amino-N-methyl-N-((3S)-6-(trifluoromethyl)-2,3-dihydro-1-benzofuran-3-yl)-1H-pyrazolo[4,3-c]quinoline-8-carboxamide], the IC50 in experiment [1] was 703 nM; in experiment [2], 15 nM.

Consider `Cc1n[nH]c2c1c(N)nc1ccc(C(=O)N(C)[C@@H]3COc4cc(C(F)(F)F)ccc43)cc12` [Example 262, 4-amino-N,3-dimethyl-N-((3S)-6-(trifluoromethyl)-2,3-dihydro-1-benzofuran-3-yl)-1H-pyrazolo[4,3-c]quinoline-8-carboxamide], for which the IC50 in experiment [1] came out at 1950 nM; in experiment [2] it was 65 nM.

For `Cc1nn(C)c2c1c(N)nc1ccc(C(=O)N(C)[C@@H]3COc4cc(C(F)(F)F)ccc43)cc12` [Example 263, 4-amino-N,1,3-trimethyl-N-((3S)-6-(trifluoromethyl)-2,3-dihydro-1-benzofuran-3-yl)-1H-pyrazolo[4,3-c]quinoline-8-carboxamide], the IC50 was 2010 nM in experiment [1] and 58 nM in experiment [2].

Take `Cc1n[nH]c2c1c(N)nc1cnc(C(=O)N(C)[C@@H]3COc4cc(C(F)(F)F)ccc43)cc12` [Example 264, 4-amino-N,3-dimethyl-N-((3S)-6-(trifluoromethyl)-2,3-dihydro-1-benzofuran-3-yl)-1H-pyrazolo[4,3-c][1,7]naph-thyridine-8-carboxamide]: the concentration for half-maximal inhibition (IC50) in experiment [1] stood at 5110 nM; in experiment [2], 70 nM.

In the case of `Cc1nn(C)c2c1c(N)nc1cnc(C(=O)N(C)[C@@H]3COc4cc(C(F)(F)F)ccc43)cc12` [Example 265, 4-amino-N,1,3-trimethyl-N-((3S)-6-(trifluoromethyl)-2,3-dihydro-1-benzofuran-3-yl)-1H-pyrazolo[4,3-c][1,7]-naphthyridine-8-carboxamide], the results for the IC50 in experiment [1] and in experiment [2] were 3850 nM and 151 nM, respectively.

In the case of `Cc1nn(C)c2c1c(N)nc1cnc(C(=O)N(C)[C@@H]3COc4cc(S(F)(F)(F)(F)F)ccc43)cc12` [Example 266, 4-amino-N,1,3-trimethyl-N-((3S)-6-(pentafluoro-lambda~6~-sulfanyl)-2,3-dihydro-1-benzofuran-3-yl)-1H-pyrazolo[4,3-c][1,7]naph-thyridine-8-carboxamide], the IC50 in experiment [1] came out at 2660 nM; in experiment [2], 70 nM.

Regarding `Cc1nn(C)c2c1c(N)nc1cc(F)c(C(=O)N(C)[C@@H]3COc4cc(C(F)(F)F)ccc43)cc12` [Example 267, 4-amino-7-fluoro-N,1,3-trimethyl-N-((3S)-6-(trifluoro-methyl)-2,3-dihydro-1-benzo-furan-3-yl)-1H-pyrazolo[4,3-c]quinoline-8-carboxamide], the IC50 is 1980 nM in experiment [1] and 36 nM in experiment [2].

In the case of `Cc1nn(C)c2c1c(N)nc1cc(F)c(C(=O)N(C)[C@@H]3COc4cc(-c5cnn(C(F)(F)F)c5)ccc43)cc12` [Example 268], the IC50 in experiment [1] amounted to 8560 nM; in experiment [2], 47 nM.

Take `COc1ccc2c(c1)COC[C@H]2N(C)C(=O)c1cc2c3c(c(N)nc2cn1)[C@@H](C)OC3` [Example 269, (3R)-4-amino-N-((4S)-7-methoxy-3,4-dihydro-1H-2-benzopyran-4-yl)-N,3-dimeth-yl-1,3-dihydrofuro[3,4-c][1,7]-naphthyridine-8-carboxamide]: the IC50 in experiment [1] is 2930 nM; in experiment [2], 39 nM.

With `C[C@H]1OCc2c1c(N)nc1cnc(C(=O)N(C)[C@@H]3COCc4nc(C(F)(F)F)ccc43)cc21` [Example 270, (3R)-4-amino-N,3-dimethyl-N-((5S)-2-(trifluoromethyl)-5,8-dihydro-6H-pyrano[3,4-b]-pyridin-5-yl)-1,3-dihydrofuro-[3,4-c][1,7]naphthyridine-8-carboxamide], the IC50 in experiment [1] came to 740 nM; in experiment [2], 17 nM.

As to `C[C@@H]1OCc2c1c(N)nc1cnc(C(=O)N(C)[C@@H]3COCc4nc(C(F)(F)F)ccc43)cc21` [Example 271, (3S)-4-amino-N,3-dimethyl-N-((5S)-2-(trifluoromethyl)-5,8-dihydro-6H-pyrano[3,4-b]-pyridin-5-yl)-1,3-dihydrofuro-[3,4-c][1,7]naphthyridine-8-carboxamide], the IC50 in experiment [1] is 31400 nM; in experiment [2] it was 956 nM.
